Assay results: patent publication US10100019B2

Experiments:
H2228 cells = assay: cells; conditions: Homo sapiens, NCI-H2228, 72 h, read-out: Cytotoxicity H2228 (GI50 μM), H2228 cells, three days, SRB
H3122 cells = assay: Cytotoxicity in non-small cell lung cancer cell line H3122 (SRB); format: cell-based, human; conditions: H3122 cells, three days, SRB
Experimental: Particularly, 4,000 H3122 cells containing ALK enzyme were distributed in each well of a 96 well plate together with 100 μl of DMEM (Dulbecco's Modified Eagle's Medium). One day later, the compound of the present invention was added to each well at different concentrations of […]. DMSO (dimethylsulfoxide) was added to the well that was not loaded with the compound by the same amount as the compound. Three days after the addition of the compound, DMEM was eliminated. 10% TCA (trichloroacetic acid) was added to fix the cells. The wells were washed with running water three times and the live cells were stained with SRB solution (1 sulphorodamine B). Then, OD was measured to calculate the population of the live cells.

Structure (SMILES)	GI50 (H2228 cells)	GI50 (H3122 cells; Homo sapiens, NCI-H3122, 72 h)	GI50 (H3122 cells)
COc1ccc(CCNCC(=O)O)cc1Nc1ncc(Cl)c(Nc2ccccc2S(=O)(=O)C(C)C)n1 [Example 27, 2-(3-(5-chloro-4-(2-(isopropylsulfonyl)phenylamino)pyrimidine-2-ylamino)-4-methoxyphenethylamino)acetic acid]	0.51 µM	0.42 µM	–
COc1cc(C(C)(C)N)c(C)cc1Nc1ncc(Cl)c(Nc2ccccc2S(=O)(=O)C(C)C)n1 [Example 57, N2-(4-(2-aminopropane-2-yl)-2-methoxy-5-methylphenyl)-5-chloro-N4-(2-(isopropylsulfonyl)phenyl)pyrimidine-2,4-diamine]	–	0.012 µM	–
COc1cc(CN)c(C)cc1Nc1ncc(Cl)c(Nc2ccccc2S(=O)(=O)C(C)C)n1 [Example 68, N2-(4-(aminomethyl)-2-methoxy-5-methylphenyl)-5-chloro-N4-(2-(isopropylsulfonyl)phenyl)pyrimidine-2,4-diamine]	–	0.11 µM	–
COc1ccc(C2(CN)CCCC2)cc1Nc1ncc(Cl)c(Nc2ccccc2S(=O)(=O)C(C)C)n1 [Example 1, N2-(5-(1-(aminomethyl)cyclopentyl)-2-methoxyphenyl)-5-chloro-N4-(2-(isopropylsulfonyl)phenyl)pyrimidine-2,4-diamine]	2.1 µM	3.06 µM	–
COc1ccc(C(C)(C)CN)cc1Nc1ncc(Cl)c(Nc2ccccc2S(=O)(=O)C(C)C)n1 [Example 35, N2-(5-(1-amino-2-methylpropane-2-yl)-2-methoxyphenyl)-5-chloro-N4-(2-(isopropylsulfonyl)phenyl)pyrimidine-2,4-diamine]	1.6 µM	1.6 µM	–
COc1ccc(CCN2CCNCC2)cc1Nc1ncc(Cl)c(Nc2ccccc2S(=O)(=O)C(C)C)n1 [Example 73, 5-chloro-N4-(2-(isopropylsulfonyl)phenyl)-N2-(2-methoxy-5-(2-(piperazine-1-yl)ethyl)phenyl)pyrimidine-2,4-diamine]	–	0.16 µM	–
COc1ccc(CCN2CCOCC2)cc1Nc1ncc(Cl)c(Nc2ccccc2S(=O)(=O)C(C)C)n1 [Example 22, 5-chloro-N4-(2-(isopropylsulfonyl)phenyl)-N2-(2-methoxy-5-(2-morpholinoethyl)phenyl)pyrimidine-2,4-diamine]	0.46 µM	0.27 µM	–
COc1ccc(CC2(N)CC2)cc1Nc1ncc(Cl)c(Nc2ccccc2S(=O)(=O)C(C)C)n1 [Example 3, N2-(5-((1-aminocyclopropyl)methyl)-2-methoxyphenyl)-5-chloro-N4-(2-(isopropylsulfonyl)phenyl)pyrimidine-2,4-diamine]	1.21 µM	0.77 µM	–
COc1ccc(CC(=O)Nc2ccccc2)cc1Nc1ncc(Cl)c(Nc2ccccc2S(=O)(=O)C(C)C)n1 [Example 50, 2-(3-((5-chloro-4-((2-(isopropylsulfonyl)phenyl)amino)pyrimidine-2-yl)amino)-4-methoxyphenyl)-N-phenylacetamide]	–	–	10 µM
COc1ccc(CC(=O)N2CCNCC2)cc1Nc1ncc(Cl)c(Nc2ccccc2S(=O)(=O)C(C)C)n1 [Example 48, 2-(3-((5-chloro-4-((2-(isopropylsulfonyl)phenyl)amino)pyrimidine-2-yl)amino)-4-methoxyphenyl)-1-(piperazine-1-yl) ethane-1-one]	–	0.58 µM	–
COc1ccc(CCNS(C)(=O)=O)cc1Nc1ncc(Cl)c(Nc2ccccc2S(=O)(=O)C(C)C)n1 [Example 8, N-(3-(5-chloro-4-(2-(isopropylsulfonyl)phenylamino)pyrimidine-2-ylamino)-4-methoxyphenethyl) methanesulfonamide]	0.88 µM	1.9 µM	–
COc1ccc(CCNC(=O)Cc2ccccc2)cc1Nc1ncc(Cl)c(Nc2ccccc2S(=O)(=O)C(C)C)n1 [Example 12, N-(3-(5-chloro-4-(2-(isopropylsulfonyl)phenylamino)pyrimidine-2-ylamino)-4-methoxyphenethyl)-2-phenylacetamide]	1.1 µM	4.7 µM	–
COc1ccc(CCN)cc1Nc1ncc(Cl)c(Nc2ccc(F)cc2S(=O)(=O)C(C)C)n1 [Example 32, N2-(5-(2-aminoethyl)-2-methoxyphenyl)-5-chloro-N4-(4-fluoro-2-(isopropylsulfonyl)phenyl)pyrimidine-2,4-diamine]	0.64 µM	0.71 µM	–
COc1cc(Br)c(CCN)cc1Nc1ncc(Cl)c(Nc2ccccc2S(=O)(=O)C(C)C)n1 [Example 51, N2-(5-(2-aminoethyl)-4-bromo-2-methoxyphenyl)-5-chloro-N4-(2-(isopropylsulfonyl)phenyl)pyrimidine-2,4-diamine]	–	1.1 µM	–
CNC(=S)NCCc1ccc(OC)c(Nc2ncc(Cl)c(Nc3ccccc3S(=O)(=O)C(C)C)n2)c1 [Example 19, 1-(3-(5-chloro-4-(2-(isopropylsulfonyl)phenylamino)pyrimidine-2-ylamino)-4-methoxyphenethyl)-3-methylthiourea]	10 µM	1.1 µM	–
CCN(CC)CCc1ccc(OC)c(Nc2ncc(Cl)c(Nc3ccccc3S(=O)(=O)C(C)C)n2)c1 [Example 14, 5-chloro-N2-(5-(2-(diethylamino)ethyl)-2-methoxyphenyl)-N4-(2-(isopropylsulfonyl)phenyl)pyrimidine-2,4-diamine]	0.09 µM	≤ 0.1 µM	0.05 µM
COc1ccc(CC(=O)N2CCCCC2)cc1Nc1ncc(Cl)c(Nc2ccccc2S(=O)(=O)C(C)C)n1 [Example 46, 2-(3-((5-chloro-4-((2-(isopropylsulfonyl)phenyl)amino)pyrimidine-2-yl)amino)-4-methoxyphenyl)-1-(piperidine-1-yl)ethane-1-one]	–	–	10 µM
COc1cc(C[N+](C)(C)C)c(C)cc1Nc1ncc(Cl)c(Nc2ccccc2S(=O)(=O)C(C)C)n1 [Example 69, 1-(4-((5-chloro-4-((2-(isopropylsulfonyl)phenyl)amino)pyrimidine-2-yl)amino)-5-methoxy-2-methylphenyl)-N,N,N-trimethylmethanealuminum iodide]	–	1.7 µM	–
COc1ccc(CCNC(=O)Nc2ccccc2)cc1Nc1ncc(Cl)c(Nc2ccccc2S(=O)(=O)C(C)C)n1 [Example 18, 1-(3-(5-chloro-4-(2-(isopropylsulfonyl)phenylamino)pyrimidine-2-ylamino)-4-methoxyphenethyl)-3-phenylurea]	4.9 µM	3.6 µM	–
COc1ccc(CCNC(=O)NC2CCCCC2)cc1Nc1ncc(Cl)c(Nc2ccccc2S(=O)(=O)C(C)C)n1 [Example 17, 1-(3-(5-chloro-4-(2-(isopropylsulfonyl)phenylamino)pyrimidine-2-ylamino)-4-methoxyphenethyl)-3-cyclohexylurea]	2.3 µM	0.88 µM	–
COc1ccc(CCCN)cc1Nc1ncc(Cl)c(Nc2ccccc2S(=O)(=O)C(C)C)n1 [Example 41, N2-(5-(3-aminopropyl)-2-methoxyphenyl)-5-chloro-N4-(2-(isopropylsulfonyl)phenyl)pyrimidine-2,4-diamine]	–	0.19 µM	–
COc1ccc(CCCNC(=O)C(F)(F)F)cc1Nc1ncc(Cl)c(Nc2ccccc2S(=O)(=O)C(C)C)n1 [Example 40, N-(3-(3-((5-chloro-4-((2-(isopropylsulfonyl)phenyl)amino)pyrimidine-2-yl)amino)-4-methoxyphenyl)propyl)-2,2,2-trifluoroacetamide]	–	0.33 µM	–
COc1ccc(CC(=O)O)cc1Nc1ncc(Cl)c(Nc2ccccc2S(=O)(=O)C(C)C)n1 [Example 44, 2-(3-((5-chloro-4-((2-(isopropylsulfonyl)phenyl)amino)pyrimidine-2-yl)amino)-4-methoxyphenyl)acetic acid]	–	1 µM	–
COc1cc(-c2cnn(C)c2)c(CCN)cc1Nc1ncc(Cl)c(Nc2ccccc2S(=O)(=O)C(C)C)n1 [Example 52, N2-(5-(2-aminoethyl)-2-methoxy-4-(1-methyl-1H-pyrazole-4-yl)phenyl)-5-chloro-N4-(2-(isopropylsulfonyl)phenyl)pyrimidine-2,4-diamine]	–	0.096 µM	–
CCOCCOC(=O)Cc1ccc(OC)c(Nc2ncc(Cl)c(Nc3ccccc3S(=O)(=O)C(C)C)n2)c1 [Example 43, 2-ethoxyethyl 2-(3-((5-chloro-4-((2-(isopropylsulfonyl)phenyl)amino)pyrimidine-2-yl)amino)-4-methoxyphenyl)acetate]	–	> 10 µM	–
COc1ccc(CCN)cc1Nc1ncc(Cl)c(Nc2ccccc2S(=O)(=O)C(C)C)n1 [Example 4, N2-(5-(2-aminoethyl)-2-methoxyphenyl)-5-chloro-N4-(2-(isopropylsulfonyl)phenyl) pyrimidine-2,4-diamine]	–	≤ 0.1 µM	0.08 µM
COc1ccc(CC(=O)N2CCOCC2)cc1Nc1ncc(Cl)c(Nc2ccccc2S(=O)(=O)C(C)C)n1 [Example 45, 2-(3-((5-chloro-4-((2-(isopropylsulfonyl)phenyl)amino)pyrimidine-2-yl)amino)-4-methoxyphenyl)-1-morpholinoethane-1-one]	–	–	10 µM
COc1ccc(CC(=O)Nc2ccncc2)cc1Nc1ncc(Cl)c(Nc2ccccc2S(=O)(=O)C(C)C)n1 [Example 49, 2-(3-((5-chloro-4-((2-(isopropylsulfonyl)phenyl)amino)pyrimidine-2-yl)amino)-4-methoxyphenyl)-N-(pyridine-4-yl)acetamide]	–	–	10 µM
COc1ccc(CC(N)=O)cc1Nc1ncc(Cl)c(Nc2ccccc2S(=O)(=O)C(C)C)n1 [Example 42, 2-(3-((5-chloro-4-((2-(isopropylsulfonyl)phenyl)amino)pyrimidine-2-yl)amino)-4-methoxyphenyl)acetamide]	–	0.15 µM	–
